# Experimental data as given in PMC10300102, “In vivo inhibition of nuclear ACE2 translocation protects against SARS-CoV-2 replication and lung damage through epigenetic imprinting” (Nature Communications, 2023).
# Where a SMILES comes first, the peptide text is derived from it. The star is where a group is joined. Myristoyl = CCCCCCCCCCCCCC(=O)*
# System: SARS-CoV-2 ORF1ab and host gene expression
# Conditions: hamster, in vivo
compound,measurement,value
CCCCCCCCCCCCCC(=O)N[C@H](C(=O)NCC(=O)N[C@H](C(=O)N[C@@H](CCCNC(=N)N)C(=O)N[C@@H](CC(=O)O)C(=O)N[C@@H](CCCNC(=N)N)C(=O)N[C@@H](CCCCN)C(=O)N[C@@H](CCCCN)C(=O)N[C@@H](CCCCN)C(=O)N[C@@H](CC(N)=O)C(=O)N[C@@H](CCCCN)C(=O)N[C@@H](C)C(=O)N[C@@H](CCCNC(=N)N)C(=O)N[C@@H](CO)C(=O)O)[C@@H](C)CC)[C@@H](C)O [NACE2i] (Myristoyl-TGIRDRKKKNKARS-OH),FC gene Cyp4v3,0.2095
same,FC gene ORF1ab,-2.2037
same,FC gene S,-2.258
same,"FC, gene 2410004B18Rik",0.5678
same,"FC, gene 4932438A13Rik",0.5459
same,"FC, gene Acat3",-0.674
same,"FC, gene Acly",-0.5062
same,"FC, gene Adnp2",0.5468
same,"FC, gene Aen",0.6316
same,"FC, gene Aff4",0.6064
same,"FC, gene Ahcy",-0.9648
same,"FC, gene Akap13",0.5493
same,"FC, gene Ankrd17",0.6698
same,"FC, gene Ap1s1",-0.5707
same,"FC, gene Ap3d1",0.5083
same,"FC, gene Aplnr",0.5871
same,"FC, gene Arhgap23",0.8043
same,"FC, gene Asph",-0.5094
same,"FC, gene Atf1",0.5582
same,"FC, gene Bbs4",0.6922
same,"FC, gene Bnip1",0.513
same,"FC, gene Btn1a1",0.5761
same,"FC, gene C2",2.567
same,"FC, gene Ccdc115",-0.5047
same,"FC, gene Ccr7",0.5204
same,"FC, gene Cdk4",-0.5201
same,"FC, gene Chd8",1.187
same,"FC, gene Chpt1",-0.6745
same,"FC, gene Ciao2a",-0.5045
same,"FC, gene Clcn7",0.7305
same,"FC, gene Cldn10",-0.6712
same,"FC, gene Clec2j",-0.5841
same,"FC, gene Cuedc1",-0.5402
same,"FC, gene Cyp4a32",0.9236
same,"FC, gene Cyth4",0.5449
same,"FC, gene D8Ertd738e",-0.5566
same,"FC, gene Dcps",0.5089
same,"FC, gene Ddx3x",0.6643
same,"FC, gene Ddx17",-0.6263
same,"FC, gene Ddx50",0.5809
same,"FC, gene Dnajb1",1.307
same,"FC, gene Dnajb4",0.8217
same,"FC, gene Dusp6",0.7087
same,"FC, gene Dusp8",0.9914
same,"FC, gene Edem2",-0.5407
same,"FC, gene Efcab6",-0.6582
same,"FC, gene Efhc2",0.6406
same,"FC, gene Efl1",0.5009
same,"FC, gene Egr2",1.468
same,"FC, gene Epb41l2",0.503
same,"FC, gene Epb41l4b",-0.6555
same,"FC, gene Epc1",0.5651
same,"FC, gene Erfl",0.7342
same,"FC, gene Fam210b",-0.5004
same,"FC, gene Fbxo34",0.5562
same,"FC, gene Fer1l4",0.5763
same,"FC, gene Fgfr2",-0.6329
same,"FC, gene Fnip1",1.067
same,"FC, gene Foxa1",-0.5875
same,"FC, gene Foxo4",-0.5985
same,"FC, gene Foxp1",0.7638
same,"FC, gene Frk",-0.5985
same,"FC, gene Fscn1",0.6051
same,"FC, gene Gadd45gip1",-0.6021
same,"FC, gene Galnt16",0.5879
same,"FC, gene Gcdh",-0.6082
same,"FC, gene Get3",-0.5368
same,"FC, gene Gm6760",-0.5229
same,"FC, gene Gm19935",0.6161
same,"FC, gene Gm36327",0.5888
same,"FC, gene Gpr108",-0.6108
same,"FC, gene Grcc10",-0.632
same,"FC, gene Gstm5",-0.5595
same,"FC, gene Hbs1l",0.5826
same,"FC, gene Hcfc2",0.539
same,"FC, gene Hddc3",-0.6233
same,"FC, gene Hes1",0.7365
same,"FC, gene Hes7",0.6772
same,"FC, gene Hnrnph3",0.5781
same,"FC, gene Hspa1a",3.192
same,"FC, gene Hspb8",0.5876
same,"FC, gene Ints1",-0.5112
same,"FC, gene Ints6",0.5796
same,"FC, gene Irgm2",0.8053
same,"FC, gene Itm2c",-0.5859
same,"FC, gene Josd2",-0.5145
same,"FC, gene Kcnb2",0.5599
same,"FC, gene Kdm2b",0.8792
same,"FC, gene Klf2",0.591
same,"FC, gene Klf6",1.611
same,"FC, gene Krcc1",-0.5435
same,"FC, gene Ldhb",0.9545
same,"FC, gene Lrch4",0.6982
same,"FC, gene Mat2b",-0.5576
same,"FC, gene Mcl1",0.7457
same,"FC, gene Mff",-0.5195
same,"FC, gene Mpnd",-0.5935
same,"FC, gene Mrgprb13",0.5244
same,"FC, gene Mrpl18",-0.5015
same,"FC, gene Msantd1",0.7207
same,"FC, gene Myo6",-0.795
same,"FC, gene Myoz2",-0.6449
same,"FC, gene Ndufc2",-0.5355
same,"FC, gene Nfat5",0.6106
same,"FC, gene Nfyc",0.5405
same,"FC, gene Nlrp9c",0.6509
same,"FC, gene Nr1d1",0.7307
same,"FC, gene Nr6a1",0.5193
same,"FC, gene Nrg1",1.2298
same,"FC, gene ORF1ab_REV",1.502
same,"FC, gene Olfr229",0.6277
same,"FC, gene Olfr648",0.5798
same,"FC, gene Olfr992",0.5742
same,"FC, gene Olfr1246",0.5289
same,"FC, gene Oser1",0.5067
same,"FC, gene Papss2",0.7496
same,"FC, gene Parp4",0.5117
same,"FC, gene Paxx",0.5674
same,"FC, gene Pcdh10",0.5344
same,"FC, gene Pcf11",0.7986
same,"FC, gene Pga5",0.5011
same,"FC, gene Pias3",-0.5192
same,"FC, gene Pigb",0.6695
same,"FC, gene Pllp",-0.5323
same,"FC, gene Ppargc1a",2.4524
same,"FC, gene Ppil3",0.791
same,"FC, gene Ppp1r10",1.995
same,"FC, gene Ppp2r1a",-0.5051
same,"FC, gene Prpsap1",-0.5066
same,"FC, gene Ptprf",-0.5908
same,"FC, gene Pum1",0.5225
same,"FC, gene Rac3",-0.6773
same,"FC, gene Ranbp3",0.6534
same,"FC, gene Rapgef6",0.5765
same,"FC, gene Rasgrp2",0.6502
same,"FC, gene Rbm39",0.6181
same,"FC, gene Rel",0.5472
same,"FC, gene Rnd1",2.009
same,"FC, gene Rora",0.5709
same,"FC, gene Rps6ka4",-0.6146
same,"FC, gene Rsad1",0.5304
same,"FC, gene Rtf2",0.5373
same,"FC, gene Rusf1",-0.6909
same,"FC, gene S",7.077
same,"FC, gene Samd11",0.6285
same,"FC, gene Sdf4",0.5035
same,"FC, gene Sema4f",1.3449
same,"FC, gene Serhl",1.282
same,"FC, gene Serpinb9f",0.5421
same,"FC, gene Serpinf1",0.5919
same,"FC, gene Sfpq",0.8832
same,"FC, gene Sftpd",-0.8403
same,"FC, gene Skil",0.9649
same,"FC, gene Slc8a2",0.6877
same,"FC, gene Slc25a1",-0.8686
same,"FC, gene Slc25a45",1.7301
same,"FC, gene Snrnp70",-0.5232
same,"FC, gene Socs2",1.6268
same,"FC, gene Sqle",-0.5283
same,"FC, gene St7",0.6724
same,"FC, gene Stc1",-0.7739
same,"FC, gene Sult1a1",-0.5479
same,"FC, gene Tcp11l2",-0.5998
same,"FC, gene Tecr",-0.5713
same,"FC, gene Tmbim6",-0.5766
same,"FC, gene Tmem35b",1.27
same,"FC, gene Tnfrsf12a",0.714
same,"FC, gene Tpgs1",-0.5572
same,"FC, gene Tra2b",1.01
same,"FC, gene Tspan12",-0.8782
same,"FC, gene Ttll8",-0.5897
same,"FC, gene Twist1",0.5929
same,"FC, gene Urah",-0.7905
same,"FC, gene Vpreb1",0.5028
same,"FC, gene Vtcn1",-0.6235
same,"FC, gene Xpo4",0.7242
same,"FC, gene Ybey",0.5779
same,"FC, gene Ypel3",-0.854
same,"FC, gene Zbtb10",0.9542
same,"FC, gene Zdhhc18",0.5354
same,"FC, gene Zfp68",0.8041
same,"NEC, Autophagy",-1.884
same,"NEC, Biological oxidations",-2.307
same,"NEC, COPI-mediated anterograde transport",-2.085
same,"NEC, Cilium Assembly",-1.905
same,"NEC, ER to Golgi Anterograde Transport",-1.892
same,"NEC, Macroautophagy",-1.884
same,"NEC, Organelle biogenesis and maintenance",-2.083
same,"NEC, The citric acid (TCA) cycle and respiratory electron transport",-2.083
same,expression of SARS-CoV-2 ORF1ab,significantly reduced
same,top 20 genes in the TLR4 pathway,downregulated
same,viral ORF1ab and S genes in alveoli,significantly downregulated
